Data: patent US12178838B2, “Synthetic neuromodulatory peptides” (Lactocore, Inc., priority 2019, dated 2024)

Test system: Wistar rats after chronic unpredictable mild stress
Assay: CUMS model: Social Interaction test
Format: in vivo
Conditions: FQSE 0.5 mg/kg i.n.; diazepam 0.5 mg/kg i.p.; 4 injections; vs control non-stressed rats
Protocol: During stress, the animals were placed in individual cells and exposed to stressful conditions each day for 26 days. Two stressors were used daily, applied in the following order: • Day 1. 10 am-6 pm, rats were placed in a cold room for an hour. From 6 PM to 10 am the lights were turned on and off every 2 hours. • Day 2. 10 am-6 pm, cage tilted to 45°. From 6 PM to 10 am water deprivation. • Day 3. 10 am-6 pm, stroboscopic light. From 6 PM to 10 am the light was left on overnight. • Day 4. 10 am-6 pm, wet bedding. From 6 PM to 10 am the animals were put in a small mouse cage. • Day 5. 10 am-6 pm, no bedding. From 6 PM to 10 am the lights were turned on and off every 2 hours. • Day 6. 10 am-6 pm, a new rat was placed in the cage (6-month-old). From 6 PM to 10 am the light was left on overnight. • Day 7. 10 am-6 pm, white noise. From 6 PM to 10 am a stroboscopic light was turned on at night. • Day 8-26. Repetition of previously used stressors in the specified sequence.
Experimental substances were administered daily starting from the 58-59 day of the experiment. […]
To assess the social activity and depressive state of the animals, a test that evaluates a social interaction of rodents was used. […] Within 10 minutes the duration and number of social contacts with the juvenile male and number of threatening and aggressive contacts were recorded. […]

## CN1C(=O)CN=C(c2ccccc2)c2cc(Cl)ccc21 [Diazepam]
  duration of social contacts: significant decrease
